# Measured values published in US5843959A, “Methods and bicyclic polyamine compositions for the treatment of inflammation” (University of Florida Research Foundation, Inc., priority 1997, dated 1998).
# Entries after “also recorded” stand apart in the source; their conditions may differ.
# Test system: type II collagen-induced arthritis
# Test: Prevention of type II collagen-induced arthritis in mice
# Assay type: in vivo, mouse (DBA/1J)
# Method: The purpose of this study was to test PIP[4,4,4] in an experimental model of arthritis in DBA/1J mice by observing the onset, duration and remission of inflammation utilizing type II collagen. Twenty male DBA/1J mice, equally divided into two groups of ten animals, were immunized with a single intradermal injection of native type II chick collagen (100 μg/animal, intradermally) in Complete Freund's Adjuvant (CFA) on Day 0. […] On Day 21, both groups received a challenge dose of type II collagen (100 μg/animal, intradermally at the base of the tail, in 50 μl CFA). Daily joint measurements were recorded once per day on Days 20-40. Joints were measured using a constant tension caliper (Mitutoyo Digimatic Thickness Gauge). All mice were measured before the start of the study (Day -1) to obtain baseline readings at three joints on the right and left hindlimb (paw thickness, ankle width and knee width) and two joints of the right and left forelimb (paw thickness and elbow width). […] Four of ten mice treated with PIP[4,4,4] died or were sacrificed in extremis, during the treatment period.
smiles,measurement,setting,value
"C(CCNCC1CCNCC1)CNCC1CCNCC1 [PIP[4,4,4], N,N'-Bis(4-piperidinylmethyl)-1,4-butanediamine]",Toxicity of compound administration (in words),"75 mg/kg i.p. daily, dosage decreased to 50 mg/kg on Day 26",overt toxicity
same,Day on which decrease in joint measurements first evident,"i.p. daily from Day 20, 75 mg/kg",≤ 25 days
same,Mice died or sacrificed in extremis,"i.p. daily from Day 20, 75 then 50 mg/kg, during treatment period",Four of ten
same,Joint measurements / degree of inflammation (in words),"i.p. daily from Day 20, 75 then 50 mg/kg, vs saline control",Joint measurements decreased; also recorded: significantly less than that in mice treated with equal volumes of saline (control)
